Tested on: L 929 mouse fibroblast cells
Assay: Biocompatibility (cytotoxicity) test of material extract, DIN ISO 10993-5
Type: cell-based
Details: final concentration 1%, 48 h
Experimental: Biocompatibility Tests as Specified in DIN ISO 10993-5 (1999), EN 30993-5 (1994) The catheter shafts from Example 13 were for this purpose extracted non-sterile at 37° C. and 5% pCO2 in extraction medium (DMEM including antibiotics without FCS) for 24 h. The surface-volume ratio was 1 cm^2/ml of extraction medium. After completion of the extraction, the extraction medium was sterilized by filtration and supplemented with sterile FCS (final concentration: 10% FCS in the extraction medium). The FCS-supplemented extraction medium was put sterile on precultured L 929 mouse fibroblast cells and incubated at 37° C., 5% pCO2 for 48 h. The extract was subjected to quadruplicate parallel testing. Triton X 100 was added to the L929 cells used as toxic positive control (final concentration 1%). Cell culture medium served as non-toxic negative control. After the 48-hour incubation, the release of lactate dehydrogenase (LDH) in the cell culture supernatant was measured by a photometric method. The cells were then subjected to alkaline lysis and the protein content was measured by the Bradford method. The cells were fixed and stained with methylene blue to determine the cell count. After acidic extraction of the methylene blue, the dye content was ascertained by photometry and the extinction was compared with a standard curve in order to determine the cell count on the basis of the dye concentration. Results are shown at FIG. 12.

For Triton X 100, the “Protein content relative to negative control” value (Bradford method) was 6.8 % of the negative control value, the “Specific LDH activity increase compared with the negative control” value (cell culture supernatant) was “more than 31 fold” and the “Cell count relative to negative control” value (methylene blue) was 0.5 % of the negative control value.

— US7977403B2, “Antiseptic containing silicone elastomers” (Bayer Innovation GmbH, priority 2006, dated 2011)
